Laboratory results as given in patent US9650635B2, “Pharmaceutical compositions comprising small interfering RNA inhibitors of NOX3” (UNIVERSITY OF GENEVA, priority 2004, dated 2017).
One block for each compound: values may come before it.

What was measured:
Type in all cases: cell-based
[1] = target: T1, NOX3/NOXO1/NOXA1 (Mus musculus, UniProt Q672J9, D161Y); experiment: Superoxide production of HEK293 cells expressing NOX3/NOXO1/NOXA1 (luminol-amplified chemiluminescence)
T1 construct: expressed in transfected cells
T1 sequence (Q8NFA2 whole entry partner, one chain of several): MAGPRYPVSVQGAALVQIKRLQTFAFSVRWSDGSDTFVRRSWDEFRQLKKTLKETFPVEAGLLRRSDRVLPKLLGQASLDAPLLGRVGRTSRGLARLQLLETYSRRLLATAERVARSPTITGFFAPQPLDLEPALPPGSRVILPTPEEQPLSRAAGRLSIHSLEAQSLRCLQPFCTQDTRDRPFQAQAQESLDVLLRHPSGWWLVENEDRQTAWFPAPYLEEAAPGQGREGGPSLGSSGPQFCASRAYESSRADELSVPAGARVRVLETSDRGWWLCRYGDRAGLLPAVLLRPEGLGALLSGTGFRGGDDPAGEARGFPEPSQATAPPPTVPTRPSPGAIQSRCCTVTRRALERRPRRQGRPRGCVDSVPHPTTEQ
T1 sequence (Q86UR1 whole entry partner, one chain of several): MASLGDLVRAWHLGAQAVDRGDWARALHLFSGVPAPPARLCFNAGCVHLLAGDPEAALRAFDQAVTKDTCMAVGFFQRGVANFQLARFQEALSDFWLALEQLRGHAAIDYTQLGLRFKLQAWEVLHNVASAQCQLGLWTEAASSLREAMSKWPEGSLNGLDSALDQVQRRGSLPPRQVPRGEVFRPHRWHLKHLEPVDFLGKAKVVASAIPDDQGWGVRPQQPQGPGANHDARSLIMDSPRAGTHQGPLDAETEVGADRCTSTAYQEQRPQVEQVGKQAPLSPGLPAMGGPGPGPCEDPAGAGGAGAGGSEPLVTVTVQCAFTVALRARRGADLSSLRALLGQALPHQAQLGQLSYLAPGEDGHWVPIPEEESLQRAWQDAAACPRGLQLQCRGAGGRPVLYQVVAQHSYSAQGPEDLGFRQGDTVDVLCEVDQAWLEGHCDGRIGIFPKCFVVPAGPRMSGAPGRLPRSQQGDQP
Protocol: (§1) HEK293 were maintained in Dulbecco's Modified Eagle's Medium/Ham's Nutrient Mixture F12 that was supplemented with 10% fetal calf serum, penicillin (100 units/ml), streptomycin (100 μg/ml), and 4 mmol/liter L-glutamine. NOX3-, NOXO1-, NOXA1-, p47^phox, and p67^phox cDNAs were subcloned into pcDNA3.1 (Invitrogen, Groningen, Netherlands) and transfected into HEK293 cells with the Effectene transfection system (Qiagen). To obtain stable clones, NOX3, NOXO1, NOXA1-transfected HEK293 cells were selected with 400 μg/ml G418 starting on the 2nd day after the transfection. After 14 days of selection, 24 surviving clones were tested for superoxide production. The positive clones were verified to express NOX3-, NOXO1-, and NOXA1 RNA by RT-RCR.
(§2) ROS generation was measured by the peroxidase-dependent luminol-amplified chemiluminescence technique (referred to as luminol-amplified chemiluminescence) in 96 well microplates using Luminometer Wallac 1420 Multilabel Counter (PerkinElmer Life Sciences). Measurements were performed in Hanks' balanced salt solution supplemented with 1 mg/ml D-glucose, 1 unit/ml horseradish peroxidase, and 250 μM luminol. In some experiments, phorbol ester (PMA) was added during the measurements to 100 nM final concentration. When the effect of cisplatin or 5-Fluorouracil (5-FU) was investigated, these compounds were pre-incubated with the cells for the indicated time and concentration in cell culture medium. Before ROS measurements, the cell culture medium was exchanged with the assay solution and chemiluminescence or absorption (see below) was measured at 37° C. After measurements cells were counted, and the results were normalized to 150,000 cells. Extracellular superoxide production was measured in 96-well microplates at 550 nm as the SOD-sensitive reduction of 100 μM ferricytochrome C (referred to as cytochrome C reduction technique). The O^−2 production was calculated using an absorption coefficient of 21.1 mM^−1 cm^−1 and normalized to 10^7 cells.

[2] = target: T2, NOX3 (Mus musculus, UniProt Q672J9, D161Y); experiment: Superoxide production of HEK293 cells transfected with NOX3 alone (luminol-amplified chemiluminescence / Diogenes / cytochrome C reduction)
T2 construct: expressed in transfected cells; host or cells: HEK293, transient transfection, pcDNA3.1
T2 sequence (Q672J9 1-568 D161Y): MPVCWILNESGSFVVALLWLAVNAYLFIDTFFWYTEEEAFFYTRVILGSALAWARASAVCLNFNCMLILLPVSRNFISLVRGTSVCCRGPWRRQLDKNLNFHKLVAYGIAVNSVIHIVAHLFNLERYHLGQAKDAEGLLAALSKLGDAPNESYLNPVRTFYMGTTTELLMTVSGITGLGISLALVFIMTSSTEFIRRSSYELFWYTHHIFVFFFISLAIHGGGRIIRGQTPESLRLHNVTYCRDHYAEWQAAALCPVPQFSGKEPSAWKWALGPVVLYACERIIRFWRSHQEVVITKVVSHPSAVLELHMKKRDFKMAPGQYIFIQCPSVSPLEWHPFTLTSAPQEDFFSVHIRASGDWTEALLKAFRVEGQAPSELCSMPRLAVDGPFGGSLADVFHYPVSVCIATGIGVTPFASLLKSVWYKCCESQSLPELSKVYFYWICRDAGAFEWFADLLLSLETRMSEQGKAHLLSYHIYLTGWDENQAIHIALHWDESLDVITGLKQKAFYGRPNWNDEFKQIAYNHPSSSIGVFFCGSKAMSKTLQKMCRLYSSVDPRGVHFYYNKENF
T2 sequence (P13498 1-195 partner): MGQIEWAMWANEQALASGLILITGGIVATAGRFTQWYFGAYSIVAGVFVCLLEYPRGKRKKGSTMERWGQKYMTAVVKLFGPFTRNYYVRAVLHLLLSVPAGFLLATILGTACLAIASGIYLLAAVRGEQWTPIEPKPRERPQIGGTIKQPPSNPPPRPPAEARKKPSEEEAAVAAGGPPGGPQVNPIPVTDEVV
Protocol: as §1, §2

[3] = target: T3, NOX3, p47^phox, and p67^phox (Mus musculus, UniProt Q672J9, D161Y); experiment: Superoxide production of HEK293 cells co-transfected with NOX3, p47phox and p67phox
T3 construct: expressed in transfected cells; host or cells: HEK293, transient co-transfection, pcDNA3.1
T3 sequence (Q672J9 1-568 D161Y): T2 sequence (Q672J9 1-568 D161Y)
T3 sequence (P13498 1-195 partner): T2 sequence (P13498 1-195 partner)
Protocol: as §1, §2

[4] = test system: HEK293 cells transfected with control vector (pcDNA3.1); experiment: Superoxide production of HEK293 cells transfected with control vector; settings: control-transfected (pcDNA3.1) HEK293 cells, 20 μM cisplatin, 12 hours
Protocol: as §1, with “The positive clones were verified to express NOX3-, NOXO1-, and NOXA1 RNA by RT-RCR.” left out
(§3) ROS generation was measured by the peroxidase-dependent luminol-amplified chemiluminescence technique (referred to as luminol-amplified chemiluminescence) in 96 well microplates using Luminometer Wallac 1420 Multilabel Counter (PerkinElmer Life Sciences). […] Before ROS measurements, the cell culture medium was exchanged with the assay solution and chemiluminescence or absorption (see below) was measured at 37° C. After measurements cells were counted, and the results were normalized to 150,000 cells. Extracellular superoxide production was measured in 96-well microplates at 550 nm as the SOD-sensitive reduction of 100 μM ferricytochrome C (referred to as cytochrome C reduction technique). […]

[5] = target: T4, NOXO1, p67^phox, and NOX3 (Mus musculus, UniProt Q672J9, D161Y); experiment: Superoxide production of HEK293 cells expressing NOXO1, p67phox and NOX3; settings: 100 nM PMA
T4 construct: expressed in transfected cells; host or cells: HEK293, transient co-transfection, pcDNA3.1
T4 sequence (Q8NFA2 whole entry partner, one chain of several): as the sequence (Q8NFA2 whole entry partner, one chain of several) above
T4 sequence (P19878 whole entry partner, one chain of several): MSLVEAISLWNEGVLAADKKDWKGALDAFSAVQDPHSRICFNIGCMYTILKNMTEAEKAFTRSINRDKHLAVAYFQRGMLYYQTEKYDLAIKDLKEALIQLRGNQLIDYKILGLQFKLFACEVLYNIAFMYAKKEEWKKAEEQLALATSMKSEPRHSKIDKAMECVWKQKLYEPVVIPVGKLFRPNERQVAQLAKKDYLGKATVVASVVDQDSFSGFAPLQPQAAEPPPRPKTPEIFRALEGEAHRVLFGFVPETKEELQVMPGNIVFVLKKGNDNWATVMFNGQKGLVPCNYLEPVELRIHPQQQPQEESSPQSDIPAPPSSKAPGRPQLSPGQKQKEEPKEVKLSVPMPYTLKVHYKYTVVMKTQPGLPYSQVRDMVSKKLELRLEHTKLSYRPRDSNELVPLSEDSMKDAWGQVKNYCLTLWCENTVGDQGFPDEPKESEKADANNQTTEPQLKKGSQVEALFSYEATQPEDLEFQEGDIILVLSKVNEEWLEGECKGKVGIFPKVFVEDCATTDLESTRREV
Protocol: as §1, with “The positive clones were verified to express NOX3-, NOXO1-, and NOXA1 RNA by RT-RCR.” left out
as §3

[6] = target: T5, p47^phox, NOXA1, and NOX3 (Mus musculus, UniProt Q672J9, D161Y); experiment: Superoxide production of HEK293 cells expressing p47phox, NOXA1 and NOX3; settings: 100 nM PMA
T5 construct: expressed in transfected cells; host or cells: HEK293, transient co-transfection, pcDNA3.1
T5 sequence (Q672J9 1-568 D161Y): T2 sequence (Q672J9 1-568 D161Y)
T5 sequence (P13498 1-195 partner): T2 sequence (P13498 1-195 partner)
Protocol: as §1, with “The positive clones were verified to express NOX3-, NOXO1-, and NOXA1 RNA by RT-RCR.” left out
as §3

[7] = stable clone, 12 hours incubation

effect of 5-fluorouracil on superoxide production ([1]; 100 μM, 17 hours, data not shown): did not influence superoxide production
SMILES: O=c1[nH]cc(F)c(=O)[nH]1 [5-fluorouracil, 5-Fluorouracil]

SMILES: N.N.[Cl][Pt][Cl] [Cisplatin]
effect of cisplatin on superoxide production ([2]; NOX3-transfected HEK293 cells, 20 μM cisplatin, 12 hours, before PMA addition): elicited superoxide production | effect of cisplatin on superoxide production ([1]; stable HEK293 clones, 20 μM cisplatin, 12 hours): marked increase of superoxide production | t50 of NOX3 activation ([1]; stable clone, 20 μM cisplatin): 11.5 ± 1.7 h | treatment time at which NOX3 activity is already enhanced ([1]; stable clone, 20 μM cisplatin): 5 h | treatment time to maximal effect ([1]; stable clone, 20 μM cisplatin): around 17 hours | concentration at which NOX3-dependent ROS generation is already increased [1, 7]: 1 µM | concentration with maximal effect on NOX3-dependent ROS generation [1, 7]: 20 µM | EC50 ([1]; stable clone, 12 hours incubation, read-out: EC50 of NOX3 activation): 3.6 µM | factor of enhancement of superoxide production ([3]; 20 μM cisplatin, 12 hours): approximately 3.3 | effect of cisplatin on superoxide production [4]: not in control-transfected cells

SMILES: c1ccc2c(c1)[I+]c1ccccc1-2 [DPI, diphenylene iodonium]
effect of DPI on superoxide generation ([2]; NOX3-transfected HEK293 cells, cisplatin and PMA treated, 5 μM DPI): blocked it completely | effect of DPI on superoxide generation ([1]; stable HEK293 clones, with or without cisplatin, 5 μM DPI): abolished | effect of DPI on superoxide production ([3]; cisplatin-treated cells, 5 μM DPI, not shown): blocked

SMILES: CCCCCCCCCCCCCC(=O)O[C@@H]1[C@@H](C)[C@@]2(O)[C@@H](C=C(CO)C[C@]3(O)C(=O)C(C)=C[C@@H]23)[C@@H]2C(C)(C)[C@]12OC(C)=O [PMA, phorbol 12-myristate 13-acetate]
effect of PMA on superoxide generation after cisplatin ([2]; NOX3-transfected HEK293 cells pre-incubated with 20 μM cisplatin, 100 nM PMA): further increased superoxide generation | superoxide generation in the presence of PMA ([2]; NOX3-transfected HEK293 cells, no other subunits, 100 nM PMA): low amounts of superoxide | effect of PMA on superoxide generation ([1]; NOX3/NOXO1/NOXA1 HEK293 cells, 100 nM PMA): insensitive to PMA | effect of PMA on NOX3 activity ([3]; 100 nM PMA): strong enhancement of NOX3 activity | effect of PMA on superoxide generation [5]: could not be further enhanced by PMA | effect of PMA on superoxide production [6]: largely PMA-dependent
